Data published in patent US5725842A, “Method of administering amiloride” (priority 1996, dated 1998).
Counter-ions that a name gives are not always drawn.

Columns and labels:
[1] = system: human cystic fibrosis airway epithilia; assay: Inhibition of Na+ transport (short circuit current, ISC) by amiloride hydrochloride dry powder in minature Ussing chamber; format: cell-based
Excerpt: Freshly excised human cystic fibrosis airway […] used to assay bioactive amiloride in solution. Freshly excised tissues is obtained from the Operating Room at The University of North Carolina Hospitals as previously described. R. Boucher, M. Stutts, M. Knowles, L. Cantley, and J. Gatzy, Na+ transport in cystic fibrosis respiratory epithelia. Abnormal basal rate and response to adenylate cyclase activation. J. Clin. Invest. 78, 1245-1252 (1986). The tissue preparation is mounted in a minature Ussing chamber that has 6 ml of solution bathing each (mucosal; basolateral) surface of the preparation. The solution is a Krebs-Ringer bicarbonate solution which approximates the ionic composition of plasma. This solution is warmed (37°) and circulated with a gas lift (95% oxygen, 5% CO2) system. Mixing time in this chamber has been previously measured by calibration with dyes (blue dextran) and is five seconds or less. The measurement of sodium transport rates is performed using a voltage clamp that is interfaced to the tissue preparation by pairs of potential sensing electrodes and current passing electrodes. The current required to null the transepithelial potential difference to zero is the short circuit current, which in human airway tissue is an accurate index of sodium transport rates. See R. Boucher et al., supra. […] This experiment was conducted as described above. […]

[2] = Timed release (dissolution) of respirable solid amiloride particles in Krebs-Ringer solution approximating plasma, assayed as bioactive amiloride; format: physicochemical; settings: amiloride hydrochloride particles ~1 μm; aqueous solution approximating ionic strength of plasma
Excerpt: Freshly excised human cystic fibrosis airway […] used to assay bioactive amiloride in solution. Freshly excised tissues is obtained from the Operating Room at The University of North Carolina Hospitals as previously described. R. Boucher, M. Stutts, M. Knowles, L. Cantley, and J. Gatzy, Na+ transport in cystic fibrosis respiratory epithelia. Abnormal basal rate and response to adenylate cyclase activation. J. Clin. Invest. 78, 1245-1252 (1986). The tissue preparation is mounted in a minature Ussing chamber that has 6 ml of solution bathing each (mucosal; basolateral) surface of the preparation. The solution is a Krebs-Ringer bicarbonate solution which approximates the ionic composition of plasma. This solution is warmed (37°) and circulated with a gas lift (95% oxygen, 5% CO2) system. Mixing time in this chamber has been previously measured by calibration with dyes (blue dextran) and is five seconds or less. The measurement of sodium transport rates is performed using a voltage clamp that is interfaced to the tissue preparation by pairs of potential sensing electrodes and current passing electrodes. The current required to null the transepithelial potential difference to zero is the short circuit current, which in human airway tissue is an accurate index of sodium transport rates. See R. Boucher et al., supra.

[3] = Size distribution of amiloride aerosol (Andersen impactor); format: physicochemical; settings: MDI with spacer, 60 Lpm
Description: In each test, the MDI aerosol was dispersed into the spacer via a 50 μl metering valve designed to deliver 1 mg amiloride per puff; however, the actual delivery was closer to 3 mg/puff as determined by spectrophotometric analysis of all amiloride collected as discussed below.
After each experiment, the apparatus was disassembled and each component washed individually with 50 ml of distilled water to remove amiloride and lactose particles.

[4] = in vivo
[5] = liquid aerosol, cystic fibrosis; cited from earlier work
[6] = system: airway epithelia; settings: applied to luminal membrane; cited from earlier work
[7] = in vivo, po; cited from earlier work

Row | Structure (SMILES) | inhibition of ISC ([1]; about 1 μm, at about sixty minutes) | time to complete inhibition of ISC ([1]; particle size about 1 μm, Krebs-Ringer bicarbonate, 37°) | timed release effect of respirable solid particles [2] | mass median diameter (mmd) [3] | maximum systemic dose [4] [mg daily] | clinical benefit [5] | inhibition of Na+ and water absorption [6] | effective concentration in the airway lumen [7]
1 | N=C(N)NC(=O)c1nc(Cl)c(N)nc1N [amiloride hydrochloride] | Complete Inhibition | about sixty | dissolved slowly over time |  |  |  |  | 
2 | N=C(N)NC(=O)c1nc(Cl)c(N)nc1N [amiloride] |  |  |  | about 6 um | 20 | clinical benefit | inhibit | cannot be achieved
